This note sets out measurements from PMC2568824, “Dibutyltin Disrupts Glucocorticoid Receptor Function and Impairs Glucocorticoid-Induced Suppression of Cytokine Production” (PLoS ONE, 2008).

Assay [1] has as its target T1, glucocorticoid receptor (GR-α) (Homo sapiens, UniProt P04150).
T1 sequence (P04150 1-777): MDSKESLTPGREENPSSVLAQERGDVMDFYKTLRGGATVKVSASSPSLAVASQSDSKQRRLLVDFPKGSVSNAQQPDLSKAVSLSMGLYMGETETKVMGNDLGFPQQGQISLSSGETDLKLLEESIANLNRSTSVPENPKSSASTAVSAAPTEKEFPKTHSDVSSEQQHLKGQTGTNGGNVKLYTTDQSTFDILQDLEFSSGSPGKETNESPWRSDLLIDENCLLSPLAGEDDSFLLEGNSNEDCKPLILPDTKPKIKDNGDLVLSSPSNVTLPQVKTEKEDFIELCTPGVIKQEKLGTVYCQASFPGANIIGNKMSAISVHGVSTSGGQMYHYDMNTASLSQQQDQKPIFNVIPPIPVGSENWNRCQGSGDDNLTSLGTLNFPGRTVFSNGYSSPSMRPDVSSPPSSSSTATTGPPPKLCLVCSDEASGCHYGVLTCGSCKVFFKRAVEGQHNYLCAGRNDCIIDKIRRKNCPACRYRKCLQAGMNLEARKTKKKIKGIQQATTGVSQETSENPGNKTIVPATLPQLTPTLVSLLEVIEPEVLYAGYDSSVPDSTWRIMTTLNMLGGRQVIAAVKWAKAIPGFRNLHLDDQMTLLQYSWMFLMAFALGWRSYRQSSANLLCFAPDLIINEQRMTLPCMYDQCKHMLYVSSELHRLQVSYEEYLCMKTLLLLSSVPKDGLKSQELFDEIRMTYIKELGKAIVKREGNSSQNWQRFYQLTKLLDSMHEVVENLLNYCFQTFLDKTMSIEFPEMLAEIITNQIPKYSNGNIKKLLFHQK
Details: gene NR3C1.

In assay [2] the target is T1, glucocorticoid receptor (GR-α). Nature of the assay: inhibition of [3H]-dexamethasone binding in intact GR-transfected HEK-293 cells, overnight DBT preincubation ([…] for […] inhibition without preincubation); also transactivation reporter. Type of assay: cell-based. Details: gene NR3C1; human GR-α, transiently expressed in HEK-293 cells.

`C[C@@H]1C[C@H]2[C@@H]3CCC4=CC(=O)C=C[C@]4(C)[C@@]3(F)[C@@H](O)C[C@]2(C)[C@@]1(O)C(=O)CO` [Dex, dexamethasone]: the “radioligand binding (10 nM [3H]-dexamethasone) and displacement by unlabeled dex” value in assay [1] is listed as “Addition of unlabeled dexamethasone revealed a typical displacement pattern of tritiated dexamethasone in the presence or absence of DBT”.

In turn, dibutyltin [DBT] returned an IC50 in assay [2] of around 50 nM.

A word on the IC50: it is the midpoint of a concentration-inhibition curve. Higher therefore signals lower potency.
